Measurements taken from patent publication US20090030005A1, “Combinations for the treatment of cancer” (AMGEN INC., priority 2007, published 2009).
Like-named read-outs stand apart in the source and are kept apart here.

Assays:
Type in all cases: cell-based
MiaPaCa-2 cells = test: 14C-thymidine incorporation assay, IC20 determination (MTAP status not specified); conditions: Homo sapiens, MIA PaCa-2; same thymidine incorporation assay as Example 2
Experimental: (§1) CDK4 inhibitor in MTAP^+/+ and MTAP^−/− MiaPaCa-2 cells. The IC50 of a CDK4 inhibitor was determined in the MTAP+/+ and MTAP−/− MiaPaCa-2 cells using a thymidine incorporation assay. MTAP^−/− and MTAP^+/+ MiaPaCa-2 cells from Example 1 were seeded at 2×10^4 cells/ml in 100 μl per well in Costar T plates (Amersham Biosciences). Twenty-four hours later a dose response of a CDK4 inhibitor PD-0332991 (1 nM; 3 nM, 10 nM, 30 nM, 100 nM, 300 nM, 1 μM, 3 μM, 10 μM and 30 μM concentrations) was added to triplicate wells. ^14C-Thymidine (0.1 μCi, Amersham) was added to each well for a final total volume of 200 μL. Plates were read on a beta counter for incorporation of the radioactive thymidine as a measure of cell viability at time 0, 24, 48, 72 and 96 hours. Data was calculated as the mean and standard deviation of triplicate samples divided by the mean and standard deviation of untreated control samples to yield percent of control.
Alanosine or MTX were then dosed at the IC20 concentrations together with a dose response of the CDK4 inhibitor with or without adenine or MTA.

MTAP-/- MiaPaCa-2 cells = test: 14C-thymidine incorporation assay (cell viability) in MTAP-/- MiaPaCa-2 cells; conditions: for IC50: Homo sapiens
Experimental: (§2) Generation of MTAP^+/+ and MTAP^−/− MiaPaCa-2 cells. MiaPaCa-2 pancreatic cells, which harbor a homozygous deletion in MTAP (MTAP^−/−) were obtained from ATCC. Cells were infected with either a control virus (pLPC) or a virus expressing MTAP (pLPC-MTAP). Infected cells were selected by puromycin resistance and maintained in 0.5 μg/ml puromycin. MTAP expression in MTAP^+/+ MiaPaCa-2 cells was confirmed by QPCR.
as §1
(§3) Combination of de novo purine biosynthesis inhibitor and CDK4 inhibitor in MTAP^−/− cells with adenine. MTAP^−/− MiaPaCa-2 cells from Example 1 were seeded at 2×10^4 cells/ml in 100 μl per well in Costar T plates (Amersham Biosciences). Twenty-four hours later a dose response of a CDK4 inhibitor PD-0332991 (1 nM; 3 nM, 10 nM, 30 nM, 100 nM, 300 nM, 1 μM, 3 μM, 10 μM and 30 μM concentrations) was added to triplicate wells with or without 1.7 μM (IC20) of alanosine. Some cells were also treated with 20 μM adenine (Sigma) as rescue substrate. ^14C-Thymidine (0.1 μCi, Amersham) was added to each well for a final total volume of 200 μL. Plates were read for incorporation of the radioactive thymidine as a measure of cell viability on a beta counter at time 0, 24, 48, 72 and 96 hours. Data was calculated as the mean and standard deviation of triplicate samples divided by the mean and standard deviation of untreated control samples to yield percent of control.
as §3, with “MTA.” for “adenine.”, “MTA” for “adenine”
(§4) Combination of MTX and CDK4 inhibitor in MTAP^−/− cells. MTAP^−/− MiaPaCa-2 cells from Example 1 were seeded at 2×10^4 cells/ml in 100 μl per well in Costar T plates (Amersham Biosciences). Twenty-four hours later a dose response of a CDK4 inhibitor PD-0332991 (1 nM; 3 nM, 10 nM, 30 nM, 100 nM, 300 nM, 1 μM, 3 μM, 10 μM and 30 μM concentrations) and thymidine (20 μM, Sigma) was added to triplicate wells with or without 20 nM (IC20) of MTX. ^14C-Thymidine (0.1 μCi, Amersham) was added to each well for a final total volume of 200 μL. Plates were read for incorporation of the radioactive thymidine as a measure of cell viability on a beta counter at time 0, 24, 48, 72 and 96 hours.

MTAP+/+ MiaPaCa-2 cells = test: 14C-thymidine incorporation assay (cell viability) in MTAP+/+ MiaPaCa-2 cells; conditions: for IC50: Homo sapiens
Experimental: as §2, §1
as §3, with “MTAP^+/+” for “MTAP^−/−”
Combination of de novo purine biosynthesis inhibitor and CDK4 inhibitor in MTAP^+/+ cells with MTA. MTAP^+/+ MiaPaCa-2 cells from Example 1 were seeded at 2×10^4 cells/ml in 100 μl per well in Costar T plates (Amersham Biosciences).
as §3, with “Twenty-four” for “Combination of de novo purine biosynthesis inhibitor and CDK4 inhibitor in MTAP^−/− cells with adenine. MTAP^−/− MiaPaCa-2 cells from Example 1 were seeded at 2×10^4 cells/ml in 100 μl per well in Costar T plates (Amersham Biosciences). Twenty-four”, “MTA” for “adenine”
as §4, with “MTAP^+/+” for “MTAP^−/−”

In the case of `CN(Cc1cnc2nc(N)nc(N)c2n1)c1ccc(C(=O)N[C@@H](CCC(=O)O)C(=O)O)cc1` [MTX, Methotrexate], the IC20 (MiaPaCa-2 cells) is reported as 2 nM.
`CC(=O)c1c(C)c2cnc(Nc3ccc(N4CCNCC4)cn3)nc2n(C2CCCC2)c1=O` [PD-0332991] showed an IC50 (MTAP-/- MiaPaCa-2 cells; MIA PaCa-2, Example 2, first experiment, CDK4 inhibitor alone, MTAP-/- cells, FIG. 1, read-out: IC50 of the CDK4 inhibitor) of 1560 nM, an IC50 (MTAP-/- MiaPaCa-2 cells; MIA PaCa-2, MTAP-/- cells, 1.7 μM alanosine and 20 μM MTA, read-out: IC50 of the CDK4 inhibitor together with the alanosine and with MTA) of 643 nM and an IC50 (MTAP-/- MiaPaCa-2 cells; MIA PaCa-2, MTAP-/- cells, 1.7 μM alanosine and 20 μM adenine, read-out: IC50 of the CDK4 inhibitor together with the alanosine and with adenine) of 2460 nM. For the same compound, the IC50 (MTAP-/- MiaPaCa-2 cells; MIA PaCa-2, MTAP-/- cells, 20 μM MTA, read-out: IC50 of the CDK4 inhibitor together with the MTA) was 1710 nM, the IC50 (MTAP-/- MiaPaCa-2 cells; MIA PaCa-2, MTAP-/- cells, 20 μM adenine, read-out: IC50 of the CDK4 inhibitor together with the adenine) was 950 nM and the IC50 (MTAP-/- MiaPaCa-2 cells; MIA PaCa-2, MTAP-/- cells, Examples 4 and 6, FIG. 3, 5, read-out: IC50 of the CDK4 inhibitor alone) was 1280 nM. The IC50 (MTAP-/- MiaPaCa-2 cells; MIA PaCa-2, MTAP-/- cells, with 1.7 μM (IC20) alanosine, read-out: IC50 of the CDK4 inhibitor together with the alanosine) was 287 nM, the IC50 (MTAP-/- MiaPaCa-2 cells; MIA PaCa-2, MTAP-/- cells, with thymidine 20 μM and 20 nM (IC20) MTX, read-out: IC50 of the CDK4 inhibitor together with MTX) was 800 nM and the IC50 (MTAP-/- MiaPaCa-2 cells; MIA PaCa-2, MTAP-/- cells, with thymidine 20 μM, Example 8, FIG. 7, read-out: IC50 of the CDK4 inhibitor alone) was 1300 nM. The IC50 (MTAP+/+ MiaPaCa-2 cells; MIA PaCa-2, Example 2, first experiment, CDK4 inhibitor alone, MTAP+/+ cells, FIG. 1, read-out: IC50 of the CDK4 inhibitor) was 1820 nM, the IC50 (MTAP+/+ MiaPaCa-2 cells; MIA PaCa-2, MTAP+/+ cells, 1.7 μM alanosine and 20 μM MTA, read-out: IC50 of the CDK4 inhibitor together with the alanosine and with MTA) was 6100 nM and the IC50 (MTAP+/+ MiaPaCa-2 cells; MIA PaCa-2, MTAP+/+ cells, 1.7 μM alanosine and 20 μM adenine, read-out: IC50 of the CDK4 inhibitor together with the alanosine and with adenine) was 5560 nM. For the same compound, the IC50 (MTAP+/+ MiaPaCa-2 cells; MIA PaCa-2, MTAP+/+ cells, 20 μM MTA, read-out: IC50 of the CDK4 inhibitor together with the MTA) was 8250 nM, the IC50 (MTAP+/+ MiaPaCa-2 cells; MIA PaCa-2, MTAP+/+ cells, 20 μM adenine, read-out: IC50 of the CDK4 inhibitor together with the adenine) was 7360 nM and the IC50 (MTAP+/+ MiaPaCa-2 cells; MIA PaCa-2, MTAP+/+ cells, Examples 3 and 5, FIG. 2, 4, read-out: IC50 of the CDK4 inhibitor alone) was 4330 nM. It also gave an IC50 (MTAP+/+ MiaPaCa-2 cells; MIA PaCa-2, MTAP+/+ cells, with 1.7 μM (IC20) alanosine, read-out: IC50 of the CDK4 inhibitor together with the alanosine) of 996 nM, an IC50 (MTAP+/+ MiaPaCa-2 cells; MIA PaCa-2, MTAP+/+ cells, with thymidine 20 μM and 20 nM (IC20) MTX, read-out: IC50 of the CDK4 inhibitor together with MTX) of 3500 nM and an IC50 (MTAP+/+ MiaPaCa-2 cells; MIA PaCa-2, MTAP+/+ cells, with thymidine 20 μM, Example 7, FIG. 6, read-out: IC50 of the CDK4 inhibitor alone) of 3200 nM.
`Nc1ncnc2nc[nH]c12` [adenine] was tested, and the “Rescue of the alanosine shift of the IC50 of the CDK4 inhibitor” value (MTAP-/- MiaPaCa-2 cells; MTAP-/- cells, 20 μM rescue substrate) was “rescued” and the “Rescue of the alanosine shift of the IC50 of the CDK4 inhibitor” value (MTAP+/+ MiaPaCa-2 cells; MTAP+/+ cells, 20 μM rescue substrate) was “rescued”.
`N[C@@H](CN(O)N=O)C(=O)O` [alanosine] was tested, and the IC20 (MiaPaCa-2 cells) was 1700 nM.
